Measured values as given in patent US20090143761A1, “AGENT DELIVERY SYSTEM AND USES OF SAME” (T[…] COMPANY, LLC, priority 2005, published 2009).
Entries after “also recorded” stand apart in the source; their conditions may differ.

Legend:
[1] = excised rabbit pinna skin; cited from earlier work
[2] = Calculated diffusion and mass transfer coefficients in membranes of different thickness; settings: Urea in 5.15% agar gel vs Urea, 1 mm layer
From the text: A simplified model can be developed to account for the transport of molecules out of the skin and through the sampling chamber. The model consists of diffusion through the skin, which can be approximated by diffusion through a semi-porous protein matrix membrane and then diffusion into a bulk solution. The concentration profile in the membrane and in the bulk solution may not be consistent, in which case a partition coefficient can be used to relate the transport of molecules from the membrane to the bulk solution. The use of an iontophoretic device can, by nature of the process, produce an electric field. […]
The bulk phase diffusivity needs to be adjusted to take into account the winding path through a porous matrix. The effective diffusivity is calculated from the bulk diffusivity, void fraction, and the tortuosity. The mass transfer coefficient can be calculated from the effective diffusivity and the membrane thickness. The flux of molecules in the presence of an electrical charge can be calculated with the Nernst-plank equation.
To illustrate the effect of diffusion through a porous matrix a few calculations were performed as an example. Assuming a protein layer of 1 mm, the mass transfer coefficients were calculated for Urea (0.88 microns/s) and for Urea in a 5.15% agar gel (0.47 microns/s). […]

[3] = oral administration of tablets; cited from earlier work
humans = settings: cited from earlier work
[4] = cyclic voltammagrams
[5] = 52.8 mM and 105.6 mM donor
[6] = lithium concentration of 158.4 mM, iontophoresis, mice
Method: First, the total charge delivered to the animal during the course of the experiment was determined.
The animal model employed was that of the SKH-1 male mouse, 6 weeks old, obtained from Charles River Laboratories. The mice arrived the morning of the experiments and were used within three hours of their arrival.
Due to the fragility of the iontophoresis pad application and electrode attachment, the mice had to be restrained during the experiments. To accomplish this, a commercial mouse restrainer was purchased from Kent Scientific and modified with two holders on either side of the restrainer. The holders were placed over existing access holes in the restrainer such that spring loaded electrodes could be positioned within the holder.
The mice were given a low dosage of Halothane to allow them to be weighed and positioned in the restrainer so that there was minimal risk of the electrode pads being kicked or scraped off of the patch as the mouse was being positioned. The Halothane was administered by saturating a paper towel that had been placed at the bottom of a glass desiccator jar. The jar was placed in an exhaust fume hood prior to opening the Halothane bottle. This gave a saturated Halothane environment, in a well-ventilated area, and allowed the effects of the anesthesia to be closely monitored. […]

[7] = in vivo; cited from earlier work
[8] = patients who are prescribed lithium; cited from earlier work
[9] = cited from earlier work
[10] = Stability of primaquine after exposure to iontophoresis, thin layer chromatography; settings: silica gel TLC, n-butanol:acetic acid:water (5:3:2)
[11] = In-vitro transdermal delivery of primaquine patch across human epidermal membranes with iontophoresis
plasma cholinesterase = biological target: T1, plasma cholinesterase (Homo sapiens, UniProt P06276); assay: Selective inhibition of cholinesterase activity in plasma samples; assay type: biochemical; settings: quinidine 20 μM; BTC vs other substrate
T1 construct: confirming the capacity of the BTC substrate to detect cholinesterase activity in plasma; from tissue; host or cells: plasma
T1 sequence (P06276 29-602): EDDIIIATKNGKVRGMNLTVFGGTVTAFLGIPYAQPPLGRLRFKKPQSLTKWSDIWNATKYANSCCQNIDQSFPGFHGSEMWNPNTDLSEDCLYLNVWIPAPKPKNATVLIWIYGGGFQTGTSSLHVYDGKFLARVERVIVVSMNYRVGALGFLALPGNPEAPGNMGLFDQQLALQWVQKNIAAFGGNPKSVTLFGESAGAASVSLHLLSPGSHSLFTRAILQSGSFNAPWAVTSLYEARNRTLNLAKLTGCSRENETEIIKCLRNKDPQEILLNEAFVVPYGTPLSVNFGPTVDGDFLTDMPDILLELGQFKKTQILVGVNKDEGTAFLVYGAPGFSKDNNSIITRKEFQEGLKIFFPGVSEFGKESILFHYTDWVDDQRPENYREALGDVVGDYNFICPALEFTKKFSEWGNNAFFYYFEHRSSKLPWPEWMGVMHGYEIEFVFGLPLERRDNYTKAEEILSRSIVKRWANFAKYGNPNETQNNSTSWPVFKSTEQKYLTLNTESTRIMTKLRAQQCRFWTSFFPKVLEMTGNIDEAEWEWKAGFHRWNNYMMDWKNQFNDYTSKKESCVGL

Uremic rats = settings: intermittent administration; cited from earlier work

In the case of `NC(=O)[C@@H]1CCCN1C(=O)[C@H](Cc1cnc[nH]1)NC(=O)[C@@H]1CCC(=O)N1` [TRH, Thyrotropin-releasing hormone], the “pulsed vs continuous current iontophoretic flux” value [1] is given as “the pulsed iontophoretic flux exceeded that obtained with a continuous current”.
For `NC(N)=O` [Urea], the “decrease of mass transfer by addition of a gel matrix” value [2] was 47%.
In the case of `COC(=O)C(c1ccccc1)C1CCCCN1` (stereo not shown) [Methylphenidate], the bioavailability [3] is given as “approximately 30%”.
In the case of `CNC1(C)C2CCC(C2)C1(C)C` (stereo not shown) [mecamylamine, Mecamylamine], the “effect on self-reported effects of alcohol” value (humans) is given as “reduces the self-reported stimulant and euphoric effects of alcohol”.
For `CN1CCCC1c1cccnc1` (stereo not shown) [nicotine], the “voltage at which nicotine is oxidized” value [4] was about 1 volt.
In the case of `O=C([O-])[O-].[Li+].[Li+]` [lithium, lithium carbonate], the “effect of donor compartment lithium carbonate concentration on receiver compartment lithium concentration” value [5] is listed as “caused an equivalent increase in the receiver compartment lithium concentration”, the “serum concentration of lithium” value [6] is listed as “approximately 0.2 mM” and the plasma elimination half-life [7] is listed as 12 to 27 h. The “patients who experience some adverse effects” value [8] was “More than 80%”.
In the case of `COc1cc(NC(C)CCCN)c2ncccc2c1` (stereo not shown) [primaquine], the “share of the 10 mg dose delivered passively each hour” value ([9]; passive delivery) is listed as “Approximately 5%”, the “amount of primaquine delivered transdermally” value ([9]; within 24 hours, to achieve therapeutic plasma concentrations) is listed as 10 mg and the “stability of the primaquine molecule after exposure to iontophoresis (TLC of receptor compartment contents)” value [10] is listed as “intact primaquine is present; also recorded: there is more than one species of molecule present”. The “passive diffusion of primaquine before and after iontophoresis” value ([11]; epidermal membrane, receptor PBS pH 7.4, no current applied) was “Minimal passive diffusion” and the “amount of primaquine delivered using electrotransport” value ([11]; in 40 minutes) was 160 µg.
In the case of `C=C[C@H]1C[N@@]2CC[C@H]1C[C@@H]2[C@@H](O)c1ccnc2ccc(OC)cc12` [quinidine], the “inhibitory effect on cholinesterase activity in plasma samples” value (plasma cholinesterase) is reported as “the inhibitory effect was observed only when BTC was used”.
In the case of “PTH(1-37): parathyroid hormone fragment given intermittently to Uremic rats (AVSEIQLMHNLGKHLASVERMQWLRKKLQDVHNFVSL; Parathyroid hormone; UniProt P04089 32-68, looked up, fragment)”, the “effect on growth and bone mineral density” value (Uremic rats) is given as “improves growth and bone mineral density”.
